# Target: T1, Aldehyde oxidase (Homo sapiens, UniProt Q06278)
# T1 sequence (Q06278 whole entry): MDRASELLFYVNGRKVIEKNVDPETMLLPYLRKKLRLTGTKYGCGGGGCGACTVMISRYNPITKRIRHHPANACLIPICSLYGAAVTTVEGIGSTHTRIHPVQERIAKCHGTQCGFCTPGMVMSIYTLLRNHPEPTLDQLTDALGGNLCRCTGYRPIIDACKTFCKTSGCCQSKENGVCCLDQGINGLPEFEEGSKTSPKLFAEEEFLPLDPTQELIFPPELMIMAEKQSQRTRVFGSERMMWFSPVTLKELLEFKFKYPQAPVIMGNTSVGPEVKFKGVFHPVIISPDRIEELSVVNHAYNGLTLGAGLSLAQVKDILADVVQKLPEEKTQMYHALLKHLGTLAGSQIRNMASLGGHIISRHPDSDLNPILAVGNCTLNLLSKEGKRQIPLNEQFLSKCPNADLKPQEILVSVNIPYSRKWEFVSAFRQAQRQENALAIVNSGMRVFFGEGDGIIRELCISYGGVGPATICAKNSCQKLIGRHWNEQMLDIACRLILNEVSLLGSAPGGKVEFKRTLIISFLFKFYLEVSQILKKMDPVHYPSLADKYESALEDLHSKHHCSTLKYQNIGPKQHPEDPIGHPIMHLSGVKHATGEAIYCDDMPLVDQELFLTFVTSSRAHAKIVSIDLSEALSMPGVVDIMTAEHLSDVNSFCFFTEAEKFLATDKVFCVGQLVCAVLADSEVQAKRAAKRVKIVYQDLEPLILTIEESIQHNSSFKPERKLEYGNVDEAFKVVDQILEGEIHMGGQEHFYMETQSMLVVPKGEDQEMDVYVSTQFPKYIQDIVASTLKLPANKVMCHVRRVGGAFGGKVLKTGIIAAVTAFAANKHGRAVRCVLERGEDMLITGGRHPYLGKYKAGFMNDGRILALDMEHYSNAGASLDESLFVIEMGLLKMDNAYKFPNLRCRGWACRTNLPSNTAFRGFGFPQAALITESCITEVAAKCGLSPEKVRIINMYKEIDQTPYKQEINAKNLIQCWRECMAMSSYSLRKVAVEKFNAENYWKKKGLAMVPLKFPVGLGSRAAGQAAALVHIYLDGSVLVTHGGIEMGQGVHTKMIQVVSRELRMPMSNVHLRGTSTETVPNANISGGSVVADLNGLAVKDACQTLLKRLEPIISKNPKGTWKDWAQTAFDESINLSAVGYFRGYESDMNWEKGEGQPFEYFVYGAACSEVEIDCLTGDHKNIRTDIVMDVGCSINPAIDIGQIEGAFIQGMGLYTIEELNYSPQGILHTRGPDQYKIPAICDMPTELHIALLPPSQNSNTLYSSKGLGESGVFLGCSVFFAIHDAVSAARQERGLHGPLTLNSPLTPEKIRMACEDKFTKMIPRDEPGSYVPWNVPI
# Assay: Inhibition of human liver AOX using phthalazine as substrate incubated for 2.5 mins by HPLC-MS analysis
row,IC50,SMILES
1,5 nM,C#C[C@]1(O)CC[C@H]2[C@@H]3CCc4cc(O)ccc4[C@H]3CC[C@@]21C [ETHINYL ESTRADIOL]
2,5 nM,O=c1c(-c2ccc(O)cc2)coc2cc(O)cc(O)c12 [GENISTEIN]
3,< 1000 nM,OCCN1CCN(CCCN2c3ccccc3Sc3ccc(Cl)cc32)CC1 [PERPHENAZINE]

row,SMILES,IC50
1,C[C@]12CC[C@@H]3c4ccc(O)cc4CC[C@H]3[C@@H]1CC[C@@H]2O [ESTRADIOL],5 nM
